Laboratory results as given in the NIST ThermoML archive (doi:10.1021/je060271a).
Numbers after ± are expanded uncertainties.

Settings: 323.15 K, Liquid, Vibrating tube method

CCCC(=O)OCC(COC(=O)CCC)(COC(=O)CCC)COC(=O)CCC [pentaerythritol tetrabutyrate]
Settings | mass density [kg/m3]
6544.6 kPa | 1029.7 ± 1.2
6573.1 kPa | 1029.6 ± 1.2
6601.4 kPa | 1029.8 ± 1.2
6630.4 kPa | 1029.8 ± 1.2
6664.6 kPa | 1029.8 ± 1.2
6693.3 kPa | 1029.7 ± 1.2
6722.9 kPa | 1029.8 ± 1.2
6752.8 kPa | 1029.7 ± 1.2
6788.3 kPa | 1029.8 ± 1.2
6819.1 kPa | 1029.9 ± 1.2
6850.5 kPa | 1029.9 ± 1.2
6881.6 kPa | 1030 ± 1.2
6918.6 kPa | 1030 ± 1.2
6950.2 kPa | 1029.9 ± 1.2
6982.9 kPa | 1030 ± 1.2
7021.5 kPa | 1030 ± 1.2
7051.8 kPa | 1029.9 ± 1.2
7078.5 kPa | 1030 ± 1.2
7111.5 kPa | 1030.1 ± 1.2
7138.8 kPa | 1030.1 ± 1.2
7165.9 kPa | 1030.2 ± 1.2
7198.9 kPa | 1030.1 ± 1.2
7227.1 kPa | 1030.2 ± 1.2
7255.4 kPa | 1030.1 ± 1.2
7284.6 kPa | 1030.2 ± 1.2
7319.5 kPa | 1030.1 ± 1.2
7348.8 kPa | 1030.3 ± 1.2
7378.7 kPa | 1030.3 ± 1.2
7408.9 kPa | 1030.2 ± 1.2
7446.2 kPa | 1030.3 ± 1.2
7476.6 kPa | 1030.3 ± 1.2
7507.3 kPa | 1030.3 ± 1.2
7538.2 kPa | 1030.3 ± 1.2
7569.8 kPa | 1030.5 ± 1.2
7607.4 kPa | 1030.5 ± 1.2
7638.7 kPa | 1030.6 ± 1.2
7671.1 kPa | 1030.6 ± 1.2
7709.5 kPa | 1030.4 ± 1.2
7742.2 kPa | 1030.6 ± 1.2
7775.2 kPa | 1030.6 ± 1.2
7809.6 kPa | 1030.6 ± 1.2
7843.9 kPa | 1030.6 ± 1.2
7885.3 kPa | 1030.6 ± 1.2
7920.5 kPa | 1030.6 ± 1.2
7953.8 kPa | 1030.7 ± 1.2
7983 kPa | 1030.8 ± 1.2
8018.4 kPa | 1030.7 ± 1.2
8049.1 kPa | 1030.6 ± 1.2
8080.2 kPa | 1030.7 ± 1.2
8117.6 kPa | 1030.9 ± 1.2
8149.2 kPa | 1030.7 ± 1.2
8176.4 kPa | 1030.7 ± 1.2
8203 kPa | 1030.9 ± 1.2
8233.4 kPa | 1031 ± 1.2
8258.9 kPa | 1030.8 ± 1.2
8285.5 kPa | 1030.9 ± 1.2
8312 kPa | 1031.1 ± 1.2
8343.3 kPa | 1030.9 ± 1.2
8369.3 kPa | 1030.9 ± 1.2
8401.7 kPa | 1031.1 ± 1.2
8428.3 kPa | 1031.1 ± 1.2
8455.7 kPa | 1031 ± 1.2
8482.6 kPa | 1031.1 ± 1.2
8515.8 kPa | 1031.2 ± 1.2
8543.4 kPa | 1031.1 ± 1.2
8571.8 kPa | 1031.1 ± 1.2
8605.3 kPa | 1031.2 ± 1.2
8634.6 kPa | 1031.2 ± 1.2
8664.9 kPa | 1031.3 ± 1.2
8693.6 kPa | 1031.2 ± 1.2
8722 kPa | 1031.2 ± 1.2
8757 kPa | 1031.2 ± 1.2
8785.7 kPa | 1031.2 ± 1.2
8815.3 kPa | 1031.3 ± 1.2
8851 kPa | 1031.3 ± 1.2
8880.8 kPa | 1031.3 ± 1.2
8916.7 kPa | 1031.4 ± 1.2
8947.2 kPa | 1031.4 ± 1.2
8977.7 kPa | 1031.5 ± 1.2
9015.1 kPa | 1031.4 ± 1.2
9048.4 kPa | 1031.5 ± 1.2
9079.8 kPa | 1031.5 ± 1.2
9105.3 kPa | 1031.6 ± 1.2
9137.4 kPa | 1031.5 ± 1.2
9181.7 kPa | 1031.6 ± 1.2
9214.1 kPa | 1031.5 ± 1.2
9239.9 kPa | 1031.6 ± 1.2
9278.9 kPa | 1031.6 ± 1.2
9312 kPa | 1031.6 ± 1.2
9352.1 kPa | 1031.7 ± 1.2
9391.1 kPa | 1031.5 ± 1.2
9424.9 kPa | 1031.7 ± 1.2
9459.7 kPa | 1031.8 ± 1.2
9501.9 kPa | 1031.8 ± 1.2
9536.7 kPa | 1031.9 ± 1.2
9571.9 kPa | 1031.8 ± 1.2
9607.4 kPa | 1031.8 ± 1.2
9650.6 kPa | 1031.8 ± 1.2
9687.7 kPa | 1031.8 ± 1.2
9732.6 kPa | 1032 ± 1.2
9765 kPa | 1032 ± 1.2
9791.2 kPa | 1032 ± 1.2
9822.2 kPa | 1031.9 ± 1.2
9848.9 kPa | 1032.1 ± 1.2
9875.6 kPa | 1032.1 ± 1.2
9907.5 kPa | 1032 ± 1.2
9935 kPa | 1032 ± 1.2
9961.9 kPa | 1032.1 ± 1.2
9989 kPa | 1032.1 ± 1.2
10021 kPa | 1032.1 ± 1.2
10048 kPa | 1032.1 ± 1.2
10082 kPa | 1032.2 ± 1.2
10110 kPa | 1032.1 ± 1.2
10138 kPa | 1032.2 ± 1.2
10166 kPa | 1032.2 ± 1.2
10200 kPa | 1032.2 ± 1.2
10228 kPa | 1032.2 ± 1.2
10262 kPa | 1032.2 ± 1.2
10292 kPa | 1032.4 ± 1.2
10321 kPa | 1032.3 ± 1.2
10356 kPa | 1032.4 ± 1.2
10385 kPa | 1032.5 ± 1.2
10415 kPa | 1032.5 ± 1.2
10445 kPa | 1032.5 ± 1.2
10481 kPa | 1032.4 ± 1.2
10512 kPa | 1032.5 ± 1.2
10542 kPa | 1032.4 ± 1.2
10579 kPa | 1032.5 ± 1.2
10610 kPa | 1032.6 ± 1.2
10641 kPa | 1032.6 ± 1.2
10672 kPa | 1032.6 ± 1.2
10710 kPa | 1032.5 ± 1.2
10742 kPa | 1032.6 ± 1.2
10774 kPa | 1032.6 ± 1.2
10806 kPa | 1032.7 ± 1.2
10845 kPa | 1032.8 ± 1.2
10877 kPa | 1032.7 ± 1.2
10916 kPa | 1032.7 ± 1.2
10948 kPa | 1032.7 ± 1.2
10982 kPa | 1032.7 ± 1.2
11022 kPa | 1032.7 ± 1.2
11055 kPa | 1032.8 ± 1.2
11089 kPa | 1032.8 ± 1.2
11123 kPa | 1032.9 ± 1.2
11165 kPa | 1032.9 ± 1.2
11200 kPa | 1032.8 ± 1.2
